Data reported in patent US20260067245A1, “METHODS AND COMPOSITIONS FOR TUMOR THERAPY” (MEMORIAL SLOAN KETTERING CANCER CENTER, priority 2022, published 2026).
“Also recorded” adds a separate entry of the source.

Tested on: B16F10 cells
Assay: mouse bilateral tumor model, B16 murine melanoma (one tumor injected, contralateral not injected)
Format: in vivo
Experimental: By injecting only one of two tumors throughout the course of the experiment it is possible to separate the effect of the injected tumor from the “abscopal” effect on the distant non-injected tumor. Once treatment begins, tumors are measured twice weekly for at least 90 days.
Also, unless indicated otherwise, controls were treated with isotype control antibodies and vehicle only. Furthermore, unless indicated otherwise, all experiments were performed using the mouse bilateral tumor model described below and summarized in FIG. 2.
The animals used had large tumors in two opposite flanks. One tumor was injected while the second remained non-injected (FIG. 2), allowing separate analysis of the effect at the injected tumor from the so-called ‘abscopal’ effect at the non-injected tumor, in order to understand how this treatment could benefit patients with metastatic cancer. […] C57BL/6 mice were initially implanted with 5×10^5 syngeneic B16F10 cells intra-dermally in bilateral flanks. 8 days post tumor cell implantation, when bilateral tumors measured ˜0.5 cm, intratumoral (IT) treatment with various test agents was initiated together with intraperitoneal (IP) anti-PD-1 mAb. Treatment was administered twice weekly for 4 weeks into one of the bilateral tumors. The contralateral tumor remained un-injected for the duration of the experiment.
8 days post tumor cell implantation, when bilateral tumors measured ˜0.5 cm, intratumoral (IT) treatment with agents selected to activate APCs was initiated together with intraperitoneal (IP) anti-PD-1 mAb. Treatment was administered twice weekly for 4 weeks into one of the bilateral tumors. The contralateral tumor remained un-injected for the duration of the experiment (see FIG. 2 for schematic of experimental protocol).
These nanoparticles were administered to animals receiving 250 μg intraperitoneal anti-PD-1 (RMP1-14) concurrently. Non-formulated control animals received mixtures of MPL (5 μg) and FGK45 (20 μg) injected intratumorally with RMP1-14 delivered intraperitoneally. Anti-PD-1-only control animals received 250 μg of intraperitoneal RMP1-14 alone. Isotype/vehicle control animals received isotype control mAbs and vehicle corresponding to the nanoparticle-treated group.

Compound	survival (concurrent systemic (IP) addition to intratumoral MPL, anti-IL10R and anti-CD40 (41040))	activity when substituted for MPL in the regimen (FIG. 35B, bilateral tumor model)
O=C1[O][Pt]2([NH][C@@H]3CCCC[C@H]3[NH]2)[O]C1=O [oxaliplatin]	increases survival	
PolyIC		could be substituted for MPL; also recorded: can be substituted for MPL, albeit possibly with slightly reduced activity
